Series [1] relates to male ICR mice. The series is described as follows: Effect on acute pain (capsaicin-induced pain-related behavior, hind paw). The format is in vivo. The protocol:
Test Example 3: Effect on Acute Pain
Six-week old male ICR mice were used for the test. Test compounds were orally administered at 1-10 mg/kg and the mice were habituated to a clear observation cage for 60 minutes. The mice were lightly restrained under no anesthesia and 20 μL of 80 μg/mL (0.8% ethanol-saline) capsaicin solution was injected subcutaneously into the plantar surface of rihgt hind paw of mice. The mice were returned to the observation cage and, from just after that, the duration of pain-related behavior (licking, shaking) occurring in the right hind limb was measured as the reaction time for 5 minutes.
The inhibition rate of the test compound was determined by the following calculation formula. Test compound inhibition rate (%)=100×[1−(response time of test compound administered group/response time of vehicle control group)]

The next series concerns the target human Nav1.5 (Homo sapiens (Human), UniProt Q14524). The series is described as follows: Human Nav1.5 inhibitory activity evaluation (automated patch clamp QPatch16X, HEK293 cells stably expressing human Nav1.5). In kind it is cell-based. The method, boiled down: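 IC50 derived from concentration-response of inward current at the 20th of 20 action-potential-mimicking pulses (holding −80 mV, leak corrected with −100 mV step). HEK293 cells stably expressing human Nav1.5, room temperature, extracellular pH 7.4, intracellular CsF-based pH 7.3, 0.1% DMSO.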
(In patch-clamp work, channel activity is measured electrically.)

Series [2] has as its system male ICR mice. The series is described as follows: Effect on a neuropathic pain (L5 spinal nerve cut, von Frey 50% pain threshold). In kind it is in vivo. The settings on record: allodynia-developed mice, dose of 10 mg/kg or less, single oral administration. The protocol:
Test Example 4: Effect on a Neuropathic Pain
Five-week old male ICR mice were used for the test. The skin and muscles were incised to expose the sixth lumbar vertebra under isoflurane anesthesia, and the right transverse process was removed. The L5 spinal nerve was isolated from the surrounding tissue to cut out, and then the incision site was sutured.
The 50% pain threshold of the plantar surface was determined by referring to the method of Chaplan S R et al. (J Neurosci Methods 1994, 53: 55-63) using von Frey filaments (0.008 g, 0.02 g, 0.04 g, 0.07 g, 0.16 g, 0.4 g and 0.6 g). First, the mice were placed in a measurement case with a lattice scaffold and habituatedd until the animal settled; 0.07 g of filament was pressed against the plantar surface for about 3 seconds. If withdrawal behavior was observed, the filament with the stimulation intensity one level lower was used to apply stimulation, and conversely, if the withdrawal behavior was not detected, the filament with the stimulation intensity one level higher was used to apply stimulation. By repeating this operation, starting from 2 times before and after the presence or absence of escape behavior changed, the results for a total of 6 times were recorded, to calculate a 50% pain threshold using the following calculation formula. 50% pain threshold (g)=(10^[Xf+κδ]/10000)
Xf is the value of the stimulus intensity of the filament used in the last stimulation (log value), κ is the value derived from the pattern of presence/absence of withdrawal behavior for 6 times, and δ is the difference in stimulus intensity (log value) between the filaments used (here 0.365).

The target of the next series is human Nav1.7 (Homo sapiens (Human), UniProt Q15858). In words: Human Nav1.7 inhibitory activity evaluation (automated patch clamp QPatch16X, HEK293A cells stably expressing human Nav1.7 and human Navβ1). In kind it is cell-based. In short, it runs like this: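 IC50 calculated from the concentration-response of inward current evoked by the second −10 mV, 50 ms depolarisation, which follows a 15 s conditioning step at roughly 30-40% inactivation and a 100 ms −120 mV interval. Cells: HEK293A expressing human Nav1.7/Navβ1, automated patch clamp, room temperature, 0.1% DMSO final.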

The mark [3] stands for this setting: HEK293 cells stably expressing human Nav1.5, automated patch clamp QPatch16X.
The mark [4] stands for this setting: HEK293A cells stably expressing human Nav1.7 and human Navβ1, automated patch clamp QPatch16X.
The mark [5] stands for this setting: human Nav1.5, automated patch clamp.
Setting [6] is: human Nav1.7, automated patch clamp.

Counter-ions that a name gives are not always drawn. A value given as a limit tells only on which side of the number the result lay.

For orientation: IC50 means the point on the concentration scale where inhibition reaches its midpoint. High values mean weaker potency, low ones greater potency.

Chain of human Nav1.5 (Q14524 whole entry): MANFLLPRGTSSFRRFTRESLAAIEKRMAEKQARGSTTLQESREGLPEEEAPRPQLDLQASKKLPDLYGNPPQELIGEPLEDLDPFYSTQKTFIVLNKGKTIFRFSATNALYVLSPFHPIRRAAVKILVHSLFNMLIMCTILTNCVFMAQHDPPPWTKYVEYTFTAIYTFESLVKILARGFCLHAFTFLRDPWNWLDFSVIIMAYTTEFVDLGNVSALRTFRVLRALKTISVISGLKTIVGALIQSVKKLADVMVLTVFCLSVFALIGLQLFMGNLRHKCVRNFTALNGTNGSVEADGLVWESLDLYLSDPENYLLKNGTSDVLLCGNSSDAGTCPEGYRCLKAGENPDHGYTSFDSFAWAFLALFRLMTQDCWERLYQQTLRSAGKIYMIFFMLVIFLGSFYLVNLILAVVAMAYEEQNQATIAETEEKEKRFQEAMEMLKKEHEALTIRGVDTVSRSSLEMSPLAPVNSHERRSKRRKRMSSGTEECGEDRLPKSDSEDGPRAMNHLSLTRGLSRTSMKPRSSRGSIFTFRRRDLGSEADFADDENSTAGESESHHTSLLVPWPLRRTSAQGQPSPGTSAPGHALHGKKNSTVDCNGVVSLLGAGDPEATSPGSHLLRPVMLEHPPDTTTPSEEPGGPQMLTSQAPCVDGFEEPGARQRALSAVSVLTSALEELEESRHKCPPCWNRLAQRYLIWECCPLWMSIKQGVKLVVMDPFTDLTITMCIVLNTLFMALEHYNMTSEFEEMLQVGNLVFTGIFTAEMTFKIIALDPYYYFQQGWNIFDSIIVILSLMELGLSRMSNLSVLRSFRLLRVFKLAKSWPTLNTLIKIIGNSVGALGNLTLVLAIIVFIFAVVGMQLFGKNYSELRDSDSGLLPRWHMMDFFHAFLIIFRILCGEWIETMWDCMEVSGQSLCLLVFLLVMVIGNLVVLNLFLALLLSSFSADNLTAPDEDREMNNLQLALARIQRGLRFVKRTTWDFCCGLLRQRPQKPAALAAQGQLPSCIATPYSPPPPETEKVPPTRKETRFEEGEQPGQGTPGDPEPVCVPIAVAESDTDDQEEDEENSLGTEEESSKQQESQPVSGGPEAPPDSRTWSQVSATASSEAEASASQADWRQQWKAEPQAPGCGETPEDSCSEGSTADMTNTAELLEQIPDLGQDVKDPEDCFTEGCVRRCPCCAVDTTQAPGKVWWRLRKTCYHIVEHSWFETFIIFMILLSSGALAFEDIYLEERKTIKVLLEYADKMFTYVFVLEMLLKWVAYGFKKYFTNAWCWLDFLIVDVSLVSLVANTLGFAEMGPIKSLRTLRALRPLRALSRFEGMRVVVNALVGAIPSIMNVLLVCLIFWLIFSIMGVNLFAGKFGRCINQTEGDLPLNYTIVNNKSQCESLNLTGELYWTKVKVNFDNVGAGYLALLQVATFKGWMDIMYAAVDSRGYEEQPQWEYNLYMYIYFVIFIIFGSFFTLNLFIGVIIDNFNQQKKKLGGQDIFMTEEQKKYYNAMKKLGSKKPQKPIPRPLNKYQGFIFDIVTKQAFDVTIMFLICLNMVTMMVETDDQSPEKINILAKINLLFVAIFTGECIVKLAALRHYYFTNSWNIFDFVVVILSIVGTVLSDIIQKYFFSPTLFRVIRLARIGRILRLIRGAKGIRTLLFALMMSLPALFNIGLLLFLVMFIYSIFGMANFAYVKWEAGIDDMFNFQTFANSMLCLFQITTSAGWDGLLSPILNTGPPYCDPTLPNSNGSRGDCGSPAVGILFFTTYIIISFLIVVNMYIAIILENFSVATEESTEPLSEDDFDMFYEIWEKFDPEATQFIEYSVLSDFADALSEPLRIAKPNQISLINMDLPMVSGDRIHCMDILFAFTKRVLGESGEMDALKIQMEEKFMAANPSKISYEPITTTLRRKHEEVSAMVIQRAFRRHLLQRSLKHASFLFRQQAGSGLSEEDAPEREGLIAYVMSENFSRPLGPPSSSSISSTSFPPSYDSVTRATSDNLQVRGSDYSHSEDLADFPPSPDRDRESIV
Chain of human Nav1.7 (Q15858 whole entry): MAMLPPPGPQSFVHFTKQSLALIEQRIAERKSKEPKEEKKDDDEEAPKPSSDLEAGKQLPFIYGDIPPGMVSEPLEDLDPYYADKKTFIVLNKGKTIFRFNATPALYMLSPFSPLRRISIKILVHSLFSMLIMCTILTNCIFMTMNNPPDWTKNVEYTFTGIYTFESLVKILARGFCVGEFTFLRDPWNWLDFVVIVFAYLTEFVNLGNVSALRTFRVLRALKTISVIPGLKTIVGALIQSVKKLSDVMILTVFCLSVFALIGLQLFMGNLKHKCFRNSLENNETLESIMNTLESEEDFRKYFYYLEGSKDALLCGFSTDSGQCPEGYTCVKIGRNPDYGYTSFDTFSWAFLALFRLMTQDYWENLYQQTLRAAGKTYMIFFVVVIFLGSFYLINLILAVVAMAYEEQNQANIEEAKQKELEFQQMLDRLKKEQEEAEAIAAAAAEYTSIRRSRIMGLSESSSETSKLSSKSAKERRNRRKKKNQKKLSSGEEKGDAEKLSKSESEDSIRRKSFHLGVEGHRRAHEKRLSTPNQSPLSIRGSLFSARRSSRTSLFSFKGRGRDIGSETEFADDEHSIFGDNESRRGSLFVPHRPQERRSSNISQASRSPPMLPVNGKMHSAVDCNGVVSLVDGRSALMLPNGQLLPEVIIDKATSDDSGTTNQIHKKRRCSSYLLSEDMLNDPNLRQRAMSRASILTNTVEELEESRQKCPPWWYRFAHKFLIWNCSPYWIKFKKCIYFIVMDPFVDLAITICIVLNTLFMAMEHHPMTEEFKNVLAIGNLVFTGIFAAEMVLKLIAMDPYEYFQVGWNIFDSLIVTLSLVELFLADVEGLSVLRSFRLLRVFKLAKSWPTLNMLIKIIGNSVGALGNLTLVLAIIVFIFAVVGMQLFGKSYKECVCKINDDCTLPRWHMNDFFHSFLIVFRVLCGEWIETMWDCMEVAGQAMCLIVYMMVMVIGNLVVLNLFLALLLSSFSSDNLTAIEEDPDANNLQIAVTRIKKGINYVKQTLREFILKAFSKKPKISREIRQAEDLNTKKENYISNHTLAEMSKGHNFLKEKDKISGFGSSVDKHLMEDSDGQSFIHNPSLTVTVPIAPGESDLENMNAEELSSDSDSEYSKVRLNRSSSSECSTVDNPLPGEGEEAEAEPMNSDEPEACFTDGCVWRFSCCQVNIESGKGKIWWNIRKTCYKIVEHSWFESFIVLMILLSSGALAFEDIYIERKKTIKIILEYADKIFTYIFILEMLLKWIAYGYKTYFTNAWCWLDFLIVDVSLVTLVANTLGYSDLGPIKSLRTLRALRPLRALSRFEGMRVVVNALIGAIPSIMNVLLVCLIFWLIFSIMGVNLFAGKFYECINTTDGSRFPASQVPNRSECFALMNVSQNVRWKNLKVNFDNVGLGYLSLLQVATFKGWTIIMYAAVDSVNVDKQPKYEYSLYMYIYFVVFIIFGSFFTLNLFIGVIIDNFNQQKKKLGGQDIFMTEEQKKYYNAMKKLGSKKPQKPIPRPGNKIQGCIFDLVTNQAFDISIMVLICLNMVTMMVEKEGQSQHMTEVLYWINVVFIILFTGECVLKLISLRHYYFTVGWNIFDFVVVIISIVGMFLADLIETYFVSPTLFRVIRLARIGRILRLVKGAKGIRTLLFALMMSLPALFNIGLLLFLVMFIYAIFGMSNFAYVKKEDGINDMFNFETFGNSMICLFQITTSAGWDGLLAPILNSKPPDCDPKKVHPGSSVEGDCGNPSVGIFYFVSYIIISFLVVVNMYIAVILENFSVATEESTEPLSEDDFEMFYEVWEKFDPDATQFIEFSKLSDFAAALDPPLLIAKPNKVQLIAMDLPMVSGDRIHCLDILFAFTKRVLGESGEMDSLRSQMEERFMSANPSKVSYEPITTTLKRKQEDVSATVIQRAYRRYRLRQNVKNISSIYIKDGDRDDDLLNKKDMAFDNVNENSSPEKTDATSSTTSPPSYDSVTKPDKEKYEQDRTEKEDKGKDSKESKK
Chain of human Nav1.7 (Q07699 19-218 partner): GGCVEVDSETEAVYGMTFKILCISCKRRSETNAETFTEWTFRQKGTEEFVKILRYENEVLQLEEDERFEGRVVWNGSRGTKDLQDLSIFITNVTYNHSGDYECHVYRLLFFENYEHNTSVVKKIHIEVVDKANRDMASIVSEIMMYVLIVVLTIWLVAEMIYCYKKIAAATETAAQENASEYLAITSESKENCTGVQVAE

In the case of `N#Cc1ccc2c(c1)C[C@@H](NC(=O)c1cc3n(n1)CCC(c1ccccc1F)O3)CO2` (stereo partly drawn) [Example 70, N—((R)-6-cyanochroman-3-yl)-5-(2-fluorophenyl)-6,7-dihydro-5H-pyrazolo[5,1-b][1,3]oxazine-2-carboxamide], in the series on male ICR mice [1], the “Inhibition rate (%)” value was “A (Compounds with an inhibition rate of 30% or more are indicated by the letter “A”)”. In addition, the IC50 on human Nav1.5 (setting [3]) was 1000 to 3000 nM; at human Nav1.7 (setting [4]), below 1000 nM. In the series with male ICR mice [2], the “50% pain threshold (antiallodynic effect)” value is given as “increased the 50% pain threshold”.
Regarding `COc1cc(C2CCn3nc(C(=O)N[C@H]4COc5ccc(C#N)cc5C4)cc3O2)ccn1` (single isomer, unassigned) [74 (isomer A)], the “Inhibition rate (%)” value in the series with male ICR mice [1] was “A (Compounds with an inhibition rate of 30% or more are indicated by the letter “A”)”. Besides, the half-inhibitory concentration (IC50) on human Nav1.5 (setting [3]) is at least 3000 nM; against human Nav1.7 (setting [4]), below 1000 nM.
Regarding `O=C(c1cn2c(n1)CNC(c1ccccc1)C2)N1CCOC(c2cccc(C(F)(F)F)c2)C1` (stereo not drawn) [Example 61], the “Inhibition rate (%)” value in the series with male ICR mice [1] is “B (compounds with an inhibition rate of 20% or more and less than 30% are indicated by the letter “B”)”. Further, the IC50 against human Nav1.5 (setting [3]) is at least 3000 nM; at human Nav1.7 (setting [4]), below 10000 nM.
As to `CCC1CCn2nc(C(=O)N[C@H]3COc4ccc(C#N)cc4C3)cc2O1` (single isomer, unassigned) [Example 92 (isomer B)], the “Inhibition rate (%)” value in the series with male ICR mice [1] is “A (Compounds with an inhibition rate of 30% or more are indicated by the letter “A”)”.
`O=C(NCCc1cccc(C(F)(F)F)c1)c1cn2c(n1)CNC(c1ccccc1)C2` (stereo not drawn) [Example 48]: in the series on male ICR mice [1], the “Inhibition rate (%)” value is reported as “A (Compounds with an inhibition rate of 30% or more are indicated by the letter “A”)”. The IC50 on human Nav1.5 (setting [3]) was at least 3000 nM; against human Nav1.7 (setting [4]) it was below 10000 nM.
As for `O=C(N[C@H]1COc2ccccc2C1)c1cn2c(n1)CCC(OCC(F)(F)F)C2` (stereo partly drawn) [Example 37, N—((R)-chroman-3-yl)-6-(2,2,2-trifluoroethoxy)-5,6,7,8-tetrahydroimidazo[1,2-a]pyridine-2-carboxamide], the “Inhibition rate (%)” value with male ICR mice [1] is “B (compounds with an inhibition rate of 20% or more and less than 30% are indicated by the letter “B”)”. For the same compound, the figures for the IC50 at human Nav1.5 (setting [3]) and against human Nav1.7 (setting [4]) were at least 3000 nM and below 10000 nM, respectively.
Regarding `O=C(N[C@H]1COc2ccc(Cl)cc2C1)c1cn2c(n1)CCC(C(F)(F)F)C2` (single isomer, unassigned; isomer a) [Example 288, hydrochloride], the “Inhibition rate (%)” value in the series on male ICR mice [1] was “A (Compounds with an inhibition rate of 30% or more are indicated by the letter “A”)”.
`N#Cc1ccc2c(c1)C[C@@H](NC(=O)c1cc3n(n1)CCN(Cc1ccc(F)cc1)C3)CO2` [Example 290, (R)—N-(6-cyanochroman-3-yl)-5-(4-fluorobenzyl)-4,5,6,7-tetrahydropyrazolo[1,5-a]pyrazine-2-carboxamide hydrochloride]: the “Inhibition rate (%)” value with male ICR mice [1] is “A (Compounds with an inhibition rate of 30% or more are indicated by the letter “A”)”. The “50% pain threshold (antiallodynic effect)” value with male ICR mice [2] was “increased the 50% pain threshold”.
Consider `COc1ncc(-c2ccc3c(c2)C[C@@H](NC(=O)c2cc4n(n2)CC(CCOCC2CC2)O4)CO3)cn1` (single isomer, unassigned) [204 (isomer A)], for which the “Inhibition rate (%)” value in the series with male ICR mice [1] is listed as “A (Compounds with an inhibition rate of 30% or more are indicated by the letter “A”)”. For the same compound, the IC50 at human Nav1.5 (setting [5]) was at least 3000 nM; at human Nav1.7 (setting [6]) it was below 1000 nM.
As to `N#Cc1ccc2c(c1)C[C@@H](NC(=O)c1cc3n(n1)CCC(CCOC(F)(F)F)O3)CO2` (single isomer, unassigned) [144 (isomer B)], the “Inhibition rate (%)” value in the series with male ICR mice [1] is given as “A (Compounds with an inhibition rate of 30% or more are indicated by the letter “A”)”. At human Nav1.5 (setting [5]), the IC50 is at least 3000 nM.
Take `N#Cc1ccc2c(c1)C[C@@H](NC(=O)c1cc3n(n1)CC(CCSCC(F)(F)F)O3)CO2` (single isomer, unassigned) [244 (isomer A)]: the “Inhibition rate (%)” value in the series on male ICR mice [1] is “B (compounds with an inhibition rate of 20% or more and less than 30% are indicated by the letter “B”)”. Moreover, the IC50 was 1000 to 3000 nM against human Nav1.5 (setting [5]) and below 1000 nM on human Nav1.7 (setting [6]).
Turning to `O=C(N[C@H]1COc2ccc(COCC(F)(F)F)cc2C1)c1cc2n(n1)CCC(COCC(F)(F)F)O2` (single isomer, unassigned) [129 (isomer A)], in the series with male ICR mice [1], the “Inhibition rate (%)” value is recorded as “A (Compounds with an inhibition rate of 30% or more are indicated by the letter “A”)”. The values for the IC50 against human Nav1.5 (setting [3]) and at human Nav1.7 (setting [4]) were at least 3000 nM and below 1000 nM, respectively.
As for `Cn1ccc(-c2ccc3c(c2)C[C@@H](NC(=O)c2cc4n(n2)CC(CCOC(F)(F)F)O4)CO3)n1` (single isomer, unassigned) [213 (isomer B)], the “Inhibition rate (%)” value in the series with male ICR mice [1] is “B (compounds with an inhibition rate of 20% or more and less than 30% are indicated by the letter “B”)”.
`CCCOCC1CCn2nc(C(=O)N[C@H]3COc4ccc(C#N)cc4C3)cc2O1` (single isomer, unassigned) [101 (isomer A)]: the “Inhibition rate (%)” value in the series with male ICR mice [1] was “C (compounds with an inhibition rate of 10% or more but less than 20% is indicated by the letter “C”)”. Further, the IC50 on human Nav1.5 (setting [3]) is at least 3000 nM; against human Nav1.7 (setting [4]), below 1000 nM.
As to `N#Cc1ccc2c(c1)C[C@@H](NC(=O)c1cc3n(n1)CCC(COCC(F)(F)F)O3)CO2` (single isomer, unassigned) [115 (isomer A)], the “Inhibition rate (%)” value in the series on male ICR mice [1] was “A (Compounds with an inhibition rate of 30% or more are indicated by the letter “A”)”. For the same compound, the IC50 is at least 3000 nM against human Nav1.5 (setting [3]) and below 10000 nM on human Nav1.7 (setting [4]).
Consider `O=C(c1cn2c(n1)CNC(c1ccccc1)C2)N1CCC(c2cccc(C(F)(F)F)c2)C1` (stereo not drawn) [Example 60], for which, in the series with male ICR mice [1], the “Inhibition rate (%)” value is “B (compounds with an inhibition rate of 20% or more and less than 30% are indicated by the letter “B”)”. The IC50 at human Nav1.5 (setting [3]) was at least 3000 nM; on human Nav1.7 (setting [4]) it was below 10000 nM.
Regarding `O=C(N[C@H]1COc2ccc(C(F)F)cc2C1)c1cn2c(n1)CCC(OCC(F)(F)F)C2` (stereo partly drawn) [Example 40], the “Inhibition rate (%)” value with male ICR mice [1] is “B (compounds with an inhibition rate of 20% or more and less than 30% are indicated by the letter “B”)”. For the same compound, the IC50 is at least 3000 nM against human Nav1.5 (setting [3]) and below 10000 nM on human Nav1.7 (setting [4]).
For the compound `O=C(N[C@H]1COc2ccc(C(F)(F)F)cc2C1)c1nn2c(c1-c1ccccn1)COCC2` [Example 260, (R)-3-(pyridin-2-yl)-N-(6-(trifluoromethyl)chroman-3-yl)-6,7-dihydro-4H-pyrazolo[5,1-c][1,4]oxazine-2-carboxamide], the “Inhibition rate (%)” value in the series on male ICR mice [1] is “A (Compounds with an inhibition rate of 30% or more are indicated by the letter “A”)”. The IC50 against human Nav1.5 (setting [5]) is at least 3000 nM; against human Nav1.7 (setting [6]), below 1000 nM.
Regarding `CCC1CCn2nc(C(=O)N[C@H]3COc4ccc(C#N)cc4C3)cc2O1` (single isomer, unassigned) [Example 92 (isomer A)], the “Inhibition rate (%)” value in the series on male ICR mice [1] is on record as “A (Compounds with an inhibition rate of 30% or more are indicated by the letter “A”)”. Moreover, the IC50 at human Nav1.5 (setting [3]) was at least 3000 nM; on human Nav1.7 (setting [4]), below 1000 nM.
On to `O=C(N[C@H]1COc2ccccc2C1)c1cn2c(n1)CNC(c1ccc(F)c(F)c1)C2` (stereo partly drawn) [Example 44], for which the “Inhibition rate (%)” value in the series on male ICR mice [1] is “A (Compounds with an inhibition rate of 30% or more are indicated by the letter “A”)”. In addition, the IC50 against human Nav1.5 (setting [3]) is at least 3000 nM; against human Nav1.7 (setting [4]), below 10000 nM.
Consider `N#Cc1ccc2c(c1)C[C@@H](NC(=O)c1cc3n(n1)CCC(COCC1CC1)O3)CO2` (mixture of isomers) [Example 102, N—((R)-6-cyanochroman-3-yl)-5-((cyclopropylmethoxy)methyl)-6,7-dihydro-5H-pyrazolo[5,1-b][1,3]oxazine-2-carboxamide], for which the results for the IC50 against human Nav1.5 (setting [3]) and at human Nav1.7 (setting [4]) were at least 3000 nM and below 1000 nM, respectively.
In the case of `Cn1cc(-c2ccc3c(c2)C[C@@H](NC(=O)c2cc4n(n2)CC(CCOC(F)F)O4)CO3)cn1` (single isomer, unassigned) [221 (isomer B)], the IC50 at human Nav1.5 (setting [5]) was 1000 to 3000 nM; against human Nav1.7 (setting [6]), below 1000 nM.

The values are drawn from patent US12421225B2, “Heteroaromatic amide derivative and medicament containing the same” (KAKEN PHARMACEUTICAL CO., LTD., priority 2018, dated 2025).
